Experimental data as given in PubChem BioAssay (NCI).
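Growth conditions: 96-well plates. Treatment: test compound, 48 hours, 5 concentrations. Analysis: linear interpolation between bracketing concentrations; unreached endpoints set to highest concentration. Abbreviation: GI50, concentration required for 50% inhibition of growth. TGI denotes the concentration required for complete inhibition of growth.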

Assays:
Test in all cases: NCI tumour cell line growth inhibition, 48 h
[1] = tested on: HL-60(TB) leukemia
[2] = tested on: KM12 colon
[3] = tested on: UO-31 renal
[4] = tested on: ACHN renal
[5] = tested on: IGROV1 ovarian
[6] = tested on: BT-549 breast
[7] = tested on: SF-295 CNS
[8] = tested on: UACC-62 melanoma
[9] = tested on: RPMI-8226 leukemia
[10] = tested on: SK-MEL-5 melanoma
[11] = tested on: SF-539 CNS
[12] = tested on: HT29 colon
[13] = tested on: OVCAR-4 ovarian
[14] = tested on: MOLT-4 leukemia
[15] = tested on: K-562 leukemia
[16] = tested on: UACC-257 melanoma
[17] = tested on: COLO 205 colon
[18] = tested on: MCF7 breast
[19] = tested on: SN12C renal
[20] = tested on: SR leukemia
[21] = tested on: MDA-MB-231 breast
[22] = tested on: SK-MEL-28 melanoma
[23] = tested on: 786-0 renal
[24] = tested on: T-47D breast
[25] = tested on: SNB-19 CNS
[26] = tested on: OVCAR-3 ovarian
[27] = tested on: NCI-H23 lung
[28] = tested on: OVCAR-8 ovarian
[29] = tested on: LOX IMVI melanoma
[30] = tested on: MDA-MB-435
[31] = tested on: RXF 393 renal
[32] = tested on: SNB-75 CNS
[33] = tested on: NCI-H522 lung
[34] = tested on: NCI-H226 lung
[35] = tested on: HCT-15 colon
[36] = tested on: A549 NSCLC
[37] = tested on: SW-620 colon
[38] = tested on: SF-268 CNS
[39] = tested on: NCI-H460 lung
[40] = tested on: SK-MEL-2 melanoma
[41] = tested on: DU-145 prostate
[42] = tested on: OVCAR-5 ovarian
[43] = tested on: SK-OV-3 ovarian
[44] = tested on: EKVX NSCLC
[45] = tested on: CCRF-CEM leukemia
[46] = tested on: NCI/ADR-RES ovarian
[47] = tested on: M14 melanoma
[48] = tested on: HOP-92 NSCLC
[49] = tested on: HCT-116 colon
[50] = tested on: HOP-62 NSCLC
[51] = tested on: CAKI-1 renal
[52] = tested on: HCC-2998 colon
[53] = tested on: TK-10 renal
[54] = tested on: U251 CNS
[55] = tested on: HS 578T breast
[56] = tested on: MALME-3M melanoma
[57] = tested on: PC-3 prostate
[58] = tested on: A498 renal

CC[C@H](C)[C@H](NC(=O)c1ccccn1)C(=O)N(C)[C@H](C[C@@H](OC(C)=O)c1nc(C(=O)N[C@@H](Cc2ccccc2)C[C@H](C)C(=O)OC)cs1)C(C)C
GI50 [1]: 7.89 µM
TGI [1]: 54 µM
GI50 [2]: 8.08 µM
TGI [2]: > 100 µM
GI50 [3]: 18 µM
TGI [3]: > 100 µM
GI50 [4]: 27.3 µM
TGI [4]: > 100 µM
GI50 [5]: 11.6 µM
TGI [5]: > 100 µM
GI50 [6]: 11.4 µM
TGI [6]: 42.5 µM
GI50 [7]: 21.7 µM
TGI [7]: > 100000 nM
GI50 [8]: 4.56 µM
TGI [8]: > 100 µM
GI50 [9]: 6.98 µM
TGI [9]: > 100 µM
GI50 [10]: 10.7 µM
TGI [10]: 42.5 µM
GI50 [11]: 17.1 µM
TGI [11]: 50.8 µM
GI50 [12]: 26.3 µM
TGI [12]: > 100 µM
GI50 [13]: 31.1 µM
TGI [13]: > 100 µM
GI50 [14]: 24.7 µM
TGI [14]: 90.2 µM
GI50 [15]: 17.5 µM
TGI [15]: > 100 µM
GI50 [16]: 36.8 µM
TGI [16]: > 100 µM
GI50 [17]: 16.8 µM
TGI [17]: 42 µM
GI50 [18]: 4.92 µM
TGI [18]: > 100 µM
GI50 [19]: 30 µM
TGI [19]: > 100 µM
GI50 [20]: 3.88 µM
TGI [20]: 81 µM
GI50 [21]: 15.7 µM
TGI [21]: 48.2 µM
GI50 [22]: 35.1 µM
TGI [22]: > 100 µM
GI50 [23]: 16.1 µM
TGI [23]: 59.7 µM
GI50 [24]: 43 µM
TGI [24]: > 100 µM
GI50 [25]: 33.8 µM
TGI [25]: > 100 µM
GI50 [26]: 10.9 µM
TGI [26]: 40.7 µM
GI50 [27]: 24.6 µM
TGI [27]: > 100 µM
GI50 [28]: 33.3 µM
TGI [28]: > 100 µM
GI50 [29]: 22.3 µM
TGI [29]: > 100 µM
GI50 [30]: 2080 nM
TGI [30]: 5.64 µM
GI50 [31]: 7.56 µM
TGI [31]: 60.4 µM
GI50 [32]: 5.73 µM
TGI [32]: 98 µM
GI50 [33]: 8.93 µM
TGI [33]: 38.9 µM
GI50 [34]: 45 µM
TGI [34]: > 100 µM
GI50 [35]: 21.7 µM
TGI [35]: > 100 µM
GI50 [36]: 48.9 µM
TGI [36]: > 100 µM
GI50 [37]: 23.1 µM
TGI [37]: > 100 µM
GI50 [38]: 29 µM
TGI [38]: > 100 µM
GI50 [39]: 18.6 µM
TGI [39]: 57 µM
GI50 [40]: 12.8 µM
TGI [40]: > 100 µM
GI50 [41]: 34.7 µM
TGI [41]: > 100 µM
GI50 [42]: 27.9 µM
TGI [42]: > 100 µM
GI50 [43]: 33.4 µM
TGI [43]: > 100 µM
GI50 [44]: 35.3 µM
TGI [44]: > 100 µM
GI50 [45]: 21.5 µM
TGI [45]: > 100 µM
GI50 [46]: 25.3 µM
TGI [46]: > 100 µM
GI50 [47]: 9.25 µM
TGI [47]: 38.4 µM
GI50 [48]: 6.88 µM
TGI [48]: 80.9 µM
GI50 [49]: 11.2 µM
TGI [49]: 50.3 µM
GI50 [50]: 26.1 µM
TGI [50]: > 100 µM
GI50 [51]: 30.6 µM
TGI [51]: > 100 µM
GI50 [52]: 19.1 µM
TGI [52]: > 100 µM
GI50 [53]: 54.1 µM
TGI [53]: > 100 µM
GI50 [54]: 28.5 µM
TGI [54]: > 100 µM
GI50 [55]: 12.8 µM
TGI [55]: 45.7 µM
GI50 [56]: 15.7 µM
TGI [56]: > 100 µM
GI50 [57]: 23.6 µM
TGI [57]: > 100 µM

C[C@]12CC[C@@H]3c4ccc(O)cc4CC[C@H]3[C@@H]1CC[C@@H]2NS(=O)(=O)c1ccc(Cl)cc1
GI50 [1]: 5.14 µM
TGI [1]: 26.6 µM
GI50 [2]: 2.86 µM
TGI [2]: 9.51 µM
GI50 [3]: 2.59 µM
TGI [3]: 11.9 µM
GI50 [4]: 3.5 µM
TGI [4]: 12.9 µM
GI50 [5]: 5.74 µM
TGI [5]: 18.4 µM
GI50 [6]: 5.65 µM
TGI [6]: 22.3 µM
GI50 [7]: 1.39 µM
TGI [7]: 2720 nM
GI50 [8]: 4.46 µM
TGI [8]: 17.5 µM
GI50 [9]: 3.92 µM
TGI [9]: 23.5 µM
GI50 [10]: 2.4 µM
TGI [10]: 6.71 µM
GI50 [11]: 5.36 µM
TGI [11]: 19.1 µM
GI50 [12]: 2.92 µM
TGI [12]: 8.19 µM
GI50 [13]: 1.99 µM
TGI [13]: 8.65 µM
GI50 [14]: 3.46 µM
TGI [14]: 24.4 µM
GI50 [15]: 3.93 µM
TGI [15]: 31.7 µM
GI50 [16]: 8.5 µM
TGI [16]: 23.5 µM
GI50 [17]: 2.17 µM
TGI [17]: 4.09 µM
GI50 [18]: 1.91 µM
TGI [18]: 4.86 µM
GI50 [19]: 3.02 µM
TGI [19]: 12.3 µM
GI50 [20]: 4.47 µM
TGI [20]: 50.8 µM
GI50 [21]: 3.6 µM
TGI [21]: 14.2 µM
GI50 [22]: 7.45 µM
TGI [22]: 22.3 µM
GI50 [23]: 5.19 µM
TGI [23]: 19.7 µM
GI50 [24]: 3.66 µM
TGI [24]: 15.3 µM
GI50 [25]: 11 µM
TGI [25]: 24 µM
GI50 [26]: 3.75 µM
TGI [26]: 12.8 µM
GI50 [27]: 5.67 µM
TGI [27]: 23.1 µM
GI50 [28]: 4.86 µM
TGI [28]: 20.6 µM
GI50 [30]: 1840 nM
TGI [30]: 3.93 µM
GI50 [31]: 3.02 µM
TGI [31]: 8.89 µM
GI50 [32]: 2.07 µM
TGI [32]: 9.17 µM
GI50 [34]: 6.43 µM
TGI [34]: 21.4 µM
GI50 [36]: 3.98 µM
TGI [36]: 15.3 µM
GI50 [37]: 3.95 µM
TGI [37]: 15.9 µM
GI50 [38]: 5.69 µM
TGI [38]: 19.9 µM
GI50 [39]: 2.6 µM
TGI [39]: 6.66 µM
GI50 [40]: 5.31 µM
TGI [40]: 17.7 µM
GI50 [41]: 7.53 µM
TGI [41]: 21.6 µM
GI50 [42]: 6.02 µM
TGI [42]: 20.5 µM
GI50 [43]: 8.79 µM
TGI [43]: 22.5 µM
GI50 [58]: 2520 nM
TGI [58]: 9.36 µM
GI50 [45]: 3.5 µM
TGI [45]: 37.6 µM
GI50 [46]: 4 µM
TGI [46]: 16.8 µM
GI50 [47]: 9.13 µM
TGI [47]: 27.1 µM
GI50 [48]: 2.68 µM
TGI [48]: 10.7 µM
GI50 [49]: 4.03 µM
TGI [49]: 21.7 µM
GI50 [50]: 10.2 µM
TGI [50]: 24.4 µM
GI50 [51]: 3.3 µM
TGI [51]: 10.4 µM
GI50 [52]: 7.49 µM
TGI [52]: 23.8 µM
GI50 [53]: 5.46 µM
TGI [53]: 17.6 µM
GI50 [54]: 5.49 µM
TGI [54]: 18.5 µM
GI50 [55]: 2.58 µM
TGI [55]: 14.5 µM
GI50 [56]: 3.25 µM
TGI [56]: 10.7 µM
GI50 [57]: 2.86 µM
TGI [57]: 13.5 µM
